# Results from patent publication US10913742B2, “Oxadiazolones as transient receptor potential channel inhibitors” (Genentech, Inc., priority 2017, dated 2021).
# Molecular target: human TRPA1 (Homo sapiens (Human), UniProt O75762)
# Test: hTRPA1 CHO Ca2+ FLIPR assay (block of cinnamaldehyde induced calcium influx)
# Type: cell-based
# Conditions: CHO cells expressing TRPA1; 75 uM cinnamaldehyde; Hill coefficient fixed to 1.5; read-out: hTRPA1 (hTRPA1 CHO Ca2+ MAX EVO (IC50))
# Description: CHO cells expressing TRPA1 were plated into 384-well plates, incubated overnight at 37° C., and loaded with BD calcium indicator dye for 1 hr at 37° C. followed by 15 minutes at room temperature. The assay buffer was Hank's Balanced Salt Solution (HBSS) containing 20 mM HEPES (pH readjusted to 7.4) along with 0.02% BSA.
# Following dye load and plate cool down, compounds were added to the cells using FLIPR Tetra. Plates were then incubated with compounds for 20 minutes at room temperature prior to adding agonist.
# The IC50 results were fit with a standard Hill function, keeping the Hill coefficient (n) fixed to 1.5. Fixing the Hill coefficient will generally reduce variability of the IC50 determination. The IC50 results were individually examined to make sure the MIN and MAX points were set correctly prior to validation of the results.
# Sequence of human TRPA1 (O75762 whole entry): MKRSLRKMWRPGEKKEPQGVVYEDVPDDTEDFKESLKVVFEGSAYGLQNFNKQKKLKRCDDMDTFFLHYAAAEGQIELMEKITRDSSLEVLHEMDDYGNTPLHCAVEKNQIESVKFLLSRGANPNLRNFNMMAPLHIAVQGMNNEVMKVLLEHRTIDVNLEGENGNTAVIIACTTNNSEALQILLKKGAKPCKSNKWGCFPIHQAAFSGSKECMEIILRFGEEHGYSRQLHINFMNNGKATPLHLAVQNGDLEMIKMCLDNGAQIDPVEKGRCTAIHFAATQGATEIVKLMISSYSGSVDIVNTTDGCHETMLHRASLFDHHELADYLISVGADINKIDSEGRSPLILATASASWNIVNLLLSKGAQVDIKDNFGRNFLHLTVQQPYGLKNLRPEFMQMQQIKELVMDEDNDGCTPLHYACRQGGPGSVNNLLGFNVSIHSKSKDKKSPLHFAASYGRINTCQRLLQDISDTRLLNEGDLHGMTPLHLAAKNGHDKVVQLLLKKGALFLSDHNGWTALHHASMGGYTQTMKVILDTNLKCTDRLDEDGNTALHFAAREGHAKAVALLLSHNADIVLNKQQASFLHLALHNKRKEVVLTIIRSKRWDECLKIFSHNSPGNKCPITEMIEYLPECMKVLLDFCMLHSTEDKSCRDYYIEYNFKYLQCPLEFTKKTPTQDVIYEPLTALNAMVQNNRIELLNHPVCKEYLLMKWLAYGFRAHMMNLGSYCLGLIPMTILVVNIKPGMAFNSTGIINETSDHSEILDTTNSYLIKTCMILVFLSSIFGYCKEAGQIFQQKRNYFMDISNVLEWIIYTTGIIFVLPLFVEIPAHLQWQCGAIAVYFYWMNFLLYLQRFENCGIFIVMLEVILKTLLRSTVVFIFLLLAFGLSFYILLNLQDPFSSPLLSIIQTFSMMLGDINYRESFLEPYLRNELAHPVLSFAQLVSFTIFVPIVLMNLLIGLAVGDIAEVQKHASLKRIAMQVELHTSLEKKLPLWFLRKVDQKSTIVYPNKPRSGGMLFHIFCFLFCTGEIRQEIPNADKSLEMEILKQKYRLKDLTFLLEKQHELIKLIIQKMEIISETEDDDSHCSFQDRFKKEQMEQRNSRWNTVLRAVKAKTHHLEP
row,SMILES,IC50 [nM]
1,"CN(C)c1ccc(CCn2nc(Cn3cnc4ncn(C)c4c3=O)oc2=O)cc1 [compound 17, 3-(4-(dimethylamino)phenethyl)-5-((7-methyl-6-oxo-6H-purin-1(7H)-yl)methyl)-1,3,4-oxadiazol-2(3H)-one]",164
2,"Cn1cnc2ncn(Cc3nn(CCc4ccc(C(F)F)cc4)c(=O)o3)c(=O)c21 [compound 18, 3-(4-(difluoromethyl)phenethyl)-5-((7-methyl-6-oxo-6H-purin-1(7H)-yl)methyl)-1,3,4-oxadiazol-2(3H)-one]",509
3,"C[C@H](Cn1nc(Cn2cnc3ncn(C)c3c2=O)oc1=O)c1ccc(Cl)cc1 [compound 19, (S)-3-(2-(4-chlorophenyl)propyl)-5-((7-methyl-6-oxo-6H-purin-1(7H)-yl)methyl)-1,3,4-oxadiazol-2(3H)-one]",34
4,"C[C@@H](Cn1nc(Cn2cnc3ncn(C)c3c2=O)oc1=O)c1ccc(Cl)cc1 [compound 20, (R)-3-(2-(4-chlorophenyl)propyl)-5-((7-methyl-6-oxo-6H-purin-1(7H)-yl)methyl)-1,3,4-oxadiazol-2(3H)-one]",812
5,"Cn1cnc2ncn(Cc3nn(CCc4ccc(Cl)s4)c(=O)o3)c(=O)c21 [compound 21, 3-(2-(5-chlorothiophen-2-yl)ethyl)-5-((7-methyl-6-oxo-6H-purin-1(7H)-yl)methyl)-1,3,4-oxadiazol-2(3H)-one]",286
6,"Cn1cnc2c(C#N)nn(Cc3nn(CCc4ccc(Cl)cc4)c(=O)o3)c2c1=O [compound 22, 1-([4-[2-(4-chlorophenyl)ethyl]-5-oxo-4,5-dihydro-1,3,4-oxadiazol-2-yl]methyl)-6-methyl-7-oxo-1H,6H,7H-pyrazolo[4,3-d]pyrimidine-3-carbonitrile]",14
7,"Cn1cnc2ncn(Cc3nn(CCc4cccc(-c5ccccc5)c4)c(=O)o3)c(=O)c21 [compound 24, 7-methyl-1-([5-oxo-4-[2-(3-phenylphenyl)ethyl]-4,5-dihydro-1,3,4-oxadiazol-2-yl]methyl)-6,7-dihydro-1H-purin-6-one]",338
8,"Cn1cnc2ncn(Cc3nn(CCc4ccc(Br)c(Cl)c4)c(=O)o3)c(=O)c21 [compound 25, 1-([4-[2-(4-bromo-3-chlorophenyl)ethyl]-5-oxo-4,5-dihydro-1,3,4-oxadiazol-2-yl]methyl)-7-methyl-6,7-dihydro-1H-purin-6-one]",132
9,"Cn1cnc2ncn(Cc3nn(CCc4ccc(Cl)cc4)c(=O)o3)c2c1=O [compound 26, 7-([4-[2-(4-chlorophenyl)ethyl]-5-oxo-4,5-dihydro-1,3,4-oxadiazol-2-yl]methyl)-1-methyl-6,7-dihydro-1H-purin-6-one]",737
10,"Cc1cnnc2ncn(Cc3nn(CCc4ccc(Cl)cc4)c(=O)o3)c(=O)c12 [compound 27, 3-(4-chlorophenethyl)-5-((4-methyl-5-oxopyridazino[3,4-d]pyrimidin-6(5H)-yl)methyl)-1,3,4-oxadiazol-2(3H)-one]",49
11,"Cc1cc(C#N)nc2ncn(Cc3nn(CCc4ccc(Cl)cc4)c(=O)o3)c(=O)c12 [compound 28, 3-((4-(4-chlorophenethyl)-5-oxo-4,5-dihydro-1,3,4-oxadiazol-2-yl)methyl)-5-methyl-4-oxo-3,4-dihydropyrido[2,3-d]pyrimidine-7-carbonitrile]",9
12,"Cn1ccc2cc(CCn3nc(Cn4cnc5ncn(C)c5c4=O)oc3=O)ccc21 [compound 29, 3-[2-(1-methylindol-5-yl)ethyl]-5-[(7-methyl-6-oxo-purin-1-yl)methyl]-1,3,4-oxadiazol-2-one]",87
13,"Cn1cnc2c(C#N)nn(Cc3nc(CCc4ccc(Cl)cc4)no3)c2c1=O [compound 30, 1-[[3-[2-(4-chlorophenyl)ethyl]-1,2,4-oxadiazol-5-yl]methyl]-6-methyl-7-oxo-pyrazolo[4,3-d]pyrimidine-3-carbonitrile]",26.6
14,"Cc1ccc(CCn2nc(Cn3cnc4ncn(C)c4c3=O)oc2=O)cc1 [compound 31, 5-[(7-methyl-6-oxo-purin-1-yl)methyl]-3-[2-(p-tolyl)ethyl]-1,3,4-oxadiazol-2-one]",126
15,"Cn1cnc2c(C#N)nn(Cc3nn(CCc4ccc(OC(F)F)cc4)c(=O)o3)c2c1=O [compound 32, 1-[(4-[2-[4-(difluoromethoxy)phenyl]ethyl]-5-oxo-4,5-dihydro-1,3,4-oxadiazol-2-yl)methyl]-6-methyl-7-oxo-1H,6H,7H-pyrazolo[4,3-d]pyrimidine-3-carbonitrile]",36
16,"Cn1cnc2cnn(Cc3nn(CCc4ccc(Cl)cc4)c(=O)o3)c(=O)c21 [compound 35, 3-[2-(4-chlorophenyl)ethyl]-5-[(3-methyl-4-oxo-imidazo[4,5-d]pyridazin-5-yl)methyl]-1,3,4-oxadiazol-2-one]",96
17,"Cn1cnc2ncn(Cc3nn(CCc4ccc5ccc(C#N)cc5c4)c(=O)o3)c(=O)c21 [compound 36, 7-[2-[5-[(7-methyl-6-oxo-purin-1-yl)methyl]-2-oxo-1,3,4-oxadiazol-3-yl]ethyl]naphthalene-2-carbonitrile]",120

# The remaining lines, values ahead:
row,IC50 [nM],SMILES
1,332,"Cn1cnc2ncn(Cc3nn(C[C@@H](F)c4ccc5ccccc5c4)c(=O)o3)c(=O)c21 [compound 37, 5-[(7-methyl-6-oxo-purin-1-yl)methyl]-3-[(2S)-2-fluoro-2-(2-naphthyl)ethyl]-1,3,4-oxadiazol-2-one]"
2,113,"Cc1cc(CCn2nc(Cn3cnc4ncn(C)c4c3=O)oc2=O)ccc1Cl [compound 39, 3-(4-chloro-3-methylphenethyl)-5-((7-methyl-6-oxo-6H-purin-1(7H)-yl)methyl)-1,3,4-oxadiazol-2(3H)-one]"
3,18,"Cc1cnc(Cl)c2ncn(Cc3nn(CCc4ccc(Cl)cc4)c(=O)o3)c(=O)c12 [compound 40, 5-((8-chloro-5-methyl-4-oxopyrido[3,4-d]pyrimidin-3(4H)-yl)methyl)-3-(4-chlorophenethyl)-1,3,4-oxadiazol-2(3H)-one]"
4,492,"Cn1cnc2ncn(Cc3nn(CCc4ccc(Cl)cc4F)c(=O)o3)c(=O)c21 [compound 41, 3-(4-chloro-2-fluorophenethyl)-5-((7-methyl-6-oxo-6H-purin-1(7H)-yl)methyl)-1,3,4-oxadiazol-2(3H)-one]"
5,98,"Cn1cnc2ncn(Cc3nn(CCc4ccc(Cl)c(-c5ccccc5)c4)c(=O)o3)c(=O)c21 [compound 42, 3-(2-(6-chlorobiphenyl-3-yl)ethyl)-5-((7-methyl-6-oxo-6H-purin-1(7H)-yl)methyl)-1,3,4-oxadiazol-2(3H)-one]"
6,18,Cc1cnc(C#N)c2ncn(Cc3nn(CCc4ccc(Cl)cc4)c(=O)o3)c(=O)c12 [compound 43]
7,10,"Cn1cnc2ncn(Cc3nn(C[C@H](F)c4ccc(Br)cc4)c(=O)o3)c(=O)c21 [compound 44, (R)-3-(2-(4-bromophenyl)-2-fluoroethyl)-5-((7-methyl-6-oxo-6H-purin-1(7H)-yl)methyl)-1,3,4-oxadiazol-2(3H)-one]"
8,1200,"Cn1cnc2ncn(Cc3nn(C[C@@H](F)c4ccc(Br)cc4)c(=O)o3)c(=O)c21 [compound 45, (S)-3-(2-(4-bromophenyl)-2-fluoroethyl)-5-((7-methyl-6-oxo-6H-purin-1(7H)-yl)methyl)-1,3,4-oxadiazol-2(3H)-one]"
9,107,"Cc1ncnc2ncn(Cc3nn(CCc4ccc(Cl)cc4)c(=O)o3)c(=O)c12 [compound 46, 3-(4-chlorophenethyl)-5-((5-methyl-4-oxopyrimido[4,5-d]pyrimidin-3(4H)-yl)methyl)-1,3,4-oxadiazol-2(3H)-one]"
10,65,"Cc1csc2ncc(Cc3nn(CCc4ccc(Cl)cc4)c(=O)o3)c(=O)n12 [compound 47, 3-(4-chlorophenethyl)-5-((3-methyl-5-oxo-5H-thiazolo[3,2-a]pyrimidin-6-yl)methyl)-1,3,4-oxadiazol-2(3H)-one]"
11,196,Cn1cnc2ncn(Cc3nn(C[C@@H]4CCc5ccc(Cl)cc54)c(=O)o3)c(=O)c21 [compound 48]
12,61,"Cn1cnc2ncn(Cc3nn(C[C@@H]4CCc5cc(Cl)ccc54)c(=O)o3)c(=O)c21 [compound 49, (R)-3-((5-chloro-2,3-dihydro-1H-inden-1-yl)methyl)-5-((7-methyl-6-oxo-6,7-dihydro-1H-purin-1-yl)methyl)-1,3,4-oxadiazol-2(3H)-one]"
13,168,"Cn1cnc2ncn(Cc3nn([C@H]4C[C@H](c5ccccc5)C4)c(=O)o3)c(=O)c21 [compound 51, 5-[(7-methyl-6-oxo-purin-1-yl)methyl]-3-(3-phenylcyclobutyl)-1,3,4-oxadiazol-2-one]"
14,20,"Cn1cnc2ncn(Cc3nn([C@H]4C[C@H](c5ccc(Br)cc5)C4)c(=O)o3)c(=O)c21 [compound 52, 3-[3-(4-bromophenyl)cyclobutyl]-5-[(7-methyl-6-oxo-purin-1-yl)methyl]-1,3,4-oxadiazol-2-one]"
15,44,"Cn1cnc2ncn(Cc3nn([C@H]4C[C@H](c5cccc(Cl)c5)C4)c(=O)o3)c(=O)c21 [compound 53, 3-[3-(3-chlorophenyl)cyclobutyl]-5-[(7-methyl-6-oxo-purin-1-yl)methyl]-1,3,4-oxadiazol-2-one]"
16,105,"COc1ccc([C@H]2C[C@H](n3nc(Cn4cnc5ncn(C)c5c4=O)oc3=O)C2)cc1 [compound 54, 3-(3-(4-methoxyphenyl)cyclobutyl)-5-((7-methyl-6-oxo-6,7-dihydro-1H-purin-1-yl)methyl)-1,3,4-oxadiazol-2(3H)-one]"
17,251,"Cn1cnc2ncn(Cc3nn(CCc4ccc(-c5ccccc5)cc4)c(=O)o3)c(=O)c21 [compound 55, 5-[(7-methyl-6-oxo-purin-1-yl)methyl]-3-[2-(4-phenylphenyl)ethyl]-1,3,4-oxadiazol-2-one]"
